The source of these data is patent US20190256498A1, “CRYSTALLINE FORMS OF DACLATASVIR DIHYDROCHLORIDE” (LUPIN LIMITED, priority 2016, published 2019).

Where a name gives a salt, the structure may show the parent alone.

A short description of series [1]: Polymorphic stability of crystalline forms over a period of time. It counts as physicochemical.
The conditions of series [2]: neat crystalline dihydrochloride salts N1 and N2, screening studies; cited from earlier work.
Series [3] is described as follows: Storage stability of crystalline form L2 (temperature/RH conditions, HPLC purity). It counts as physicochemical.

Take `COC(=O)N[C@H](C(=O)N1CCC[C@H]1c1nc(-c2ccc(-c3ccc(-c4c[nH]c([C@@H]5CCCN5C(=O)[C@@H](NC(=O)OC)C(C)C)n4)cc3)cc2)c[nH]1)C(C)C` [form L1, N,N′-[[1,1′-biphenyl]-4,4′-diylbis[1H-imidazole-5,2-diyl-(2S)-2,1-pyrrolidinediyl[(1S)-1-(1-methylethyl)-2-oxo-2,1-ethanediyl]]]bis-carbamic acid, C,C′-dimethyl ester, hydrochloride (1:2)]: the “polymorphic stability (conversion to any other polymorphic form)” value in series [1] is “stable and do not get converted to any other polymorphic form”.

For `COC(=O)N[C@H](C(=O)N1CCC[C@H]1c1nc(-c2ccc(-c3ccc(-c4c[nH]c([C@@H]5CCCN5C(=O)[C@@H](NC(=O)OC)C(C)C)n4)cc3)cc2)c[nH]1)C(C)C` [form N-2, N,N′-[[1,1′-biphenyl]-4,4′-diylbis[1H-imidazole-5,2-diyl-(2S)-2,1-pyrrolidinediyl[(1S)-1-(1-methylethyl)-2-oxo-2,1-ethanediyl]]]bis-carbamic acid, C,C′-dimethyl ester, hydrochloride (1:2)], in series [2], the “thermodynamic stability among polymorphs” value is on record as “thermodynamically most stable polymorph”.

For `COC(=O)N[C@H](C(=O)N1CCC[C@H]1c1nc(-c2ccc(-c3ccc(-c4c[nH]c([C@@H]5CCCN5C(=O)[C@@H](NC(=O)OC)C(C)C)n4)cc3)cc2)c[nH]1)C(C)C` [form L2, N,N′-[[1,1′-biphenyl]-4,4′-diylbis[1H-imidazole-5,2-diyl-(2S)-2,1-pyrrolidinediyl[(1S)-1-(1-methylethyl)-2-oxo-2,1-ethanediyl]]]bis-carbamic acid, C,C′-dimethyl ester, hydrochloride (1:2)], the stability entry in series [3] (5±3° C.), in series [3] (25±2° C./60±5% RH) and in series [3] (40±2° C./75±5% RH) was “stable” throughout.
